From article PMC4444337 (PLoS ONE, 2015)
Where “and” joins values, the source holds several entries; their conditions need not be identical. Equal values may be shown once.

How the values were obtained:
[1] = system: RSV subgroup A strain A2; test: RSV viral load (qRT-PCR, RSV-A F gene) in BALF/throat after RSV A2 challenge; type: in vivo, African green monkeys; settings: for Peak log VL (Median) in BALF: qRT-PCR
Experimental: In Study 1 all animals were followed until day 13 post-inoculation, when the necropsy took place.
In Study 2 all animals were followed until day 15 post-inoculation, when the necropsy took place.
Bronchoalveolar lavage fluid (BALF), nasal and throat swabs and blood samples were collected every 2 days from day 1 postinfection up to day 11 (study 1) and day 13 (study 2). For BALF collection, monkeys were sedated with […] (0.02–0.05 mg/kg) administered intramuscularly to allow passage of sterile laryngoscope and endotracheal tube. BAL was performed by laryngoscopy by inserting a shortened Kendall Sovereign feeding tube and urethral catheter through the endotracheal tube and approximately 10 mL of phosphate buffer saline (10 mL, pH 7.4) was instilled and gently suctioned back into the syringe promptly to recover approximately 5–7 mL of BAL in the syringe. Later, the adjustment of the dilution was done based on urea and protein concentration. White blood cell (WBC) count from BALF was analyzed using automated blood analysis instrumentation (Antech Diagnostics, Lake Success, NY, USA).
All animals were challenged with 1.5mL of 1 × 10^4 pfu/mL RSV subgroup A—strain A2 virus intranasally (i.n.) and intratracheally (i.t.) on day 0. […] The virus was thawed at room temperature and immediately put on ice.
For each inoculation, 1.5 mL were aspirated with a 3 mL syringe. After being anesthetized with 10 mg/mL ketamine, the animals were placed in dorsal recumbency. 0.25 mL of the virus was instilled drop-by-drop into each nostril and allowed to absorb for 20 sec. Once the absorption was complete, a Kendall Sovereign Feeding Tube and Urethral Catheter, Size 5 Fr, was trimmed about one inch on each side and inserted intratracheally using a laryngoscope. Once in place, 1mL of virus was instilled and flushed into the trachea with 7 mL of air.
RNA was extracted using a previously described protocol.
RSV was quantified using one-Step RT-PCR Master Mix reagents (Applied Bio systems, USA). Amplification and detection were performed in a ABI PRISM 7700 Sequence Detection System (Applied Biosystems, USA) under the following conditions: an initial reverse transcription at 48°C for 30 minutes, followed by PCR activation at 95°C for 10minutes and 45 cycles of amplification (15 sec at 95°C and 1minutes at 60°C).
The IEC-B assay was run as control. The viral load (VL) was expressed as RSV A-F copy numbers and transformed in Δ log10 values. The limit of detection was 10 copies of RSV F gene. The antiviral effect was calculated as differences between peak VL and area under the curve (AUC) VL based on Δ log10 RSV from different groups.

[2] = system: IL8; test: IL8 in BALF (Luminex) after RSV challenge; type: in vivo, African green monkeys; settings: both studies
Experimental: The following monkey-specific cytokines were determined in BALF using a Luminex bead analysis according to the manufacturer's protocol: Interleukins (IL)-1b, IL-2, IL-4, IL-5, IL-6, IL-8, IL-10, Interferons (IFN)γ, IFNα, Tumor necrosis factor (TNF)α, Regulated on Activation, Normal T Cell Expressed and Secreted (RANTES), and Macrophage inflammatory protein (MIP)-1α. The non-human primate Luminex beads for IFNγ, IFNα, and IL-10 were provided by Texas Biomedical Research Institute (Texas, USA). The beads for the remaining cytokines were obtained from Millipore (Billerica, MA, USA). The samples for cytokine determination were run in duplicates. Human cytokine standards were used for standard curves and for determination of the lower limit of detection for individual cytokines. The results were read using a Luminex 100 System (Texas, USA).

[3] = Safety analysis: clinical symptoms, blood counts, serum chemistry; type: in vivo, African green monkeys; settings: compound treated vs vehicle treated groups
Experimental: The animals were monitored for clinical symptoms such as body temperature changes indicating a fever, signs of a cold, runny nose, sneezing, loss of appetite, and body weight. Blood counts and serum chemistry were assessed every second day. The safety findings were compared between the vehicle groups and the compound groups, to identify possible compound related adverse events.

[4] = system: RSV subgroup A strain A2; test: Lung histopathology (inflammation) in RSV-infected animals; type: in vivo, African green monkeys
Experimental: Tissues (administration site, heart, liver, lung, pancreas, skeletal muscle and trachea) were fixed in 10% phosphate-buffered formalin, paraffin-embedded, sectioned at 5 μm, stained with hematoxylin-eosin (H&E) and evaluated microscopically. For the lung, histological examination was performed on the right lung only, the left lung lobe was sampled for bioanalytical purposes. At tissue trimming, representative cross sections were taken from the cranial, mid and caudal lung lobe in all animals including the central part (with large bronchus) and the peripheral part. Three lung sections per animal (cranial, mid and caudal lobe) with two samples each (central and peripheral) were evaluated for each animal. To facilitate comparison between groups, a general overall score for inflammation was given for each lung section. Mean inflammatory scores were determined for each animal (mean of 3 lung lobes) and per dose group (S2 Fig).
The necropsy was performed at day 13 for Study 1 and at Day 15 for Study 2. Before necropsy, a sample for complete blood count and plasma sample was taken. Euthanasia procedures adhered to the current Report of the American Veterinary Medical Association Panel on Euthanasia. The anesthesia was performed with a combination of ketamine hydrochloride (7–15 mg/kg) and either acetylpromazine maleate (acepromazine) (0.55 mg/kg) or xylanin (Rompun) (0.6 mg/kg) followed by exsanguinations via the femoral vein. The blood taken was recorded. Thereafter, an injection of 390 mg/kg sodium pentobarbital intravenously was given. Death was defined as the cessation of respiration and of heartbeat. The necropsy was performed according to BIOQUAL SOPs and a board-certified veterinary pathologist from the Charles River Laboratories, Pathology Associates Division (PAI) was present at necropsy.

[5] = system: RSV; design: method as in PMID 21148224; settings: slow single bolus injection; cited from earlier work
[6] = system: RSV; design: method as in PMID 21148224, PMID 17722899; settings: single administration, cited from earlier work
[7] = system: RSV; settings: cited from earlier work
[8] = system: RSV-A virus; settings: read-out: EC50 on Hep2 cells, for RSV-A virus; cited from earlier work
[9] = system: RSV; design: method as in PMID 19707346, PMID 9359721; settings: pediatric patients; cited from earlier work
[10] = system: RSV; design: method as in PMID 19707346, PMID 9359721; settings: cotton rat model; cited from earlier work

Compound: Cc1ccc(CCCO)c(NCc2ccc3nc(NCCCN4CCOCC4)n(Cc4nc(C)ccc4O)c3c2)c1 [TMC353121]
- Plasma exposure at which complete inhibition of RSV shedding was observed ([1]; Px500 arm): 0.39 µg/mL
- Timing of peak viral shedding ([1]; Study 1, Px50, 3 out of 5 animals): delayed peak viral shedding from day 7 to day 9
- Peak log VL (Median) in BALF ([1]; Study 1, Px50, vehicle Vh1 8.15): 6.88 log10
- Δ log (Median): reduction in peak VL vs vehicle treated group, BALF ([1]; Study 1, Px50 vs Vh1): -1.06 log10
- Decrease in peak VL in BALF compared with the control group ([1]; Study 1, Tx50): 1.15 log10
- Peak log VL (Median) in BALF ([1]; Study 1, Tx50, vehicle Vh1 8.15): 7 log10 and 7.00 log10
- Δ log (Median): reduction in peak VL vs vehicle treated group, BALF ([1]; Study 1, Tx50 vs Vh1): -1.1 log10
- Peak log VL (Median) in BALF ([1]; Study 2, Px5, vehicle Vh2 5.17): 5.23 log10
- Δ log (Median): reduction in peak VL vs vehicle treated group, BALF ([1]; Study 2, Px5 vs Vh2): 0 log10
- Viral replication during the entire study ([1]; Study 2, Px500, except one animal with a viral blip at day 10): complete inhibition of viral replication
- Peak log VL (Median) in BALF ([1]; Study 2, Px500, vehicle Vh2 5.17): 0 log10
- VL in BAL 24h after the drug infusion was stopped ([1]; Study 2, one Px500 animal, day 10, below limit of detection at day 9 in presence of drug): 2 log
- Antiviral activity across dose groups ([1]; from 1log10 reduction of peak viral load to complete inhibition of RSV replication): dose-dependent antiviral activity
- Delay in peak viral shedding ([1]; prophylactic administrations (Px50, Px5)): 2 days
- Peak VL reduction ([1]; therapeutic (+1day postchallenge) or prophylactic administration at exposure levels 3- to 5-fold above the EC50c): 1 log10
- IL8 production in BALF, control vs treated animals [2]: no significant reduction in IL8 production
- Drug related adverse events (clinical symptoms, blood counts, serum chemistry) [3]: no drug related adverse events were observed
- Lung histopathology: improvement ([4]; Study 1, Tx50 and Px50 groups): No improvement on lung histopathology
- Lung histopathology: inflammatory changes ([4]; Study 2, Px5 group (as vehicle control), slight to marked degree): very pronounced (inflammatory) changes
- Lung histopathology: inflammatory changes ([4]; Study 2, Px500 group, minimal to occasionally slight degree): much less pronounced changes
- Antiviral activity in rodent models of RSV infection [5]: significant antiviral activity
- Antiviral effect in treated compared with untreated groups ([6]; mice): 0.5–1 log
- Lung histopathology in mice [6]: improved lung histopathology
- pEC50 (anti-RSV activity) [7]: 9.9

Compound: NC(=O)c1ncn([C@@H]2O[C@H](CO)[C@@H](O)[C@H]2O)n1 [ribavirin]
- EC50 [8]: 30 µM

Compound: palivizumab: humanized monoclonal antibody indicated for RSV prophylaxis in high-risk children
- Exposure levels required to achieve 50% prophylactic effectiveness [9]: 37 to 72 µg/mL
- Exposure level to achieve complete inhibition of the RSV shedding [10]: 40 µg/mL
